# Experimental data published in PubChem BioAssay (NCI).
#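 Tested at 5 concentrations; 48 h exposure; 96-well plates; endpoints linearly interpolated, else capped at highest concentration. GI50 is the concentration that inhibits growth by half. Definition used: TGI = concentration required for complete inhibition of growth.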
# What was measured:
# Experiment in all cases: NCI tumour cell line growth inhibition, 48 h
# [1] = system: 786-0 renal
# [2] = system: A498 renal
# [3] = system: A549 NSCLC
# [4] = system: ACHN renal
# [5] = system: BT-549 breast
# [6] = system: CAKI-1 renal
# [7] = system: CCRF-CEM leukemia
# [8] = system: COLO 205 colon
# [9] = system: DLD-1 colon
# [10] = system: DMS 114 small cell lung
# [11] = system: DMS 273 small cell lung
# [12] = system: DU-145 prostate
# [13] = system: EKVX NSCLC
# [14] = system: HCC-2998 colon
# [15] = system: HCT-116 colon
# [16] = system: HCT-15 colon
# [17] = system: HL-60(TB) leukemia
# [18] = system: HOP-62 NSCLC
# [19] = system: HOP-92 NSCLC
# [20] = system: HS 578T breast
# [21] = system: HT29 colon
# [22] = system: IGROV1 ovarian
# [23] = system: K-562 leukemia
# [24] = system: KM12 colon
# [25] = system: KM20L2 colon
# [26] = system: LOX IMVI melanoma
# [27] = system: LXFL 529 NSCLC
# [28] = system: M14 melanoma
# [29] = system: M19-MEL melanoma
# [30] = system: MALME-3M melanoma
# [31] = system: MCF7 breast
# [32] = system: MDA-MB-231 breast
# [33] = system: MDA-MB-435
# [34] = system: MDA-N
# [35] = system: MOLT-4 leukemia
# [36] = system: NCI-H226 lung
# [37] = system: NCI-H23 lung
# [38] = system: NCI-H460 lung
# [39] = system: NCI-H522 lung
# [40] = system: NCI/ADR-RES ovarian
# [41] = system: OVCAR-3 ovarian
# [42] = system: OVCAR-4 ovarian
# [43] = system: OVCAR-5 ovarian
# [44] = system: OVCAR-8 ovarian
# [45] = system: PC-3 prostate
# [46] = system: RPMI-8226 leukemia
# [47] = system: RXF 393 renal
# [48] = system: SF-268 CNS
# [49] = system: SF-295 CNS
# [50] = system: SF-539 CNS
# [51] = system: SK-MEL-2 melanoma
# [52] = system: SK-MEL-28 melanoma
# [53] = system: SK-MEL-5 melanoma
# [54] = system: SK-OV-3 ovarian
# [55] = system: SN12C renal
# [56] = system: SNB-19 CNS
# [57] = system: SNB-75 CNS
# [58] = system: SNB-78 CNS
# [59] = system: SR leukemia
# [60] = system: SW-620 colon
# [61] = system: T-47D breast
# [62] = system: TK-10 renal
# [63] = system: U251 CNS
# [64] = system: UACC-257 melanoma
# [65] = system: UACC-62 melanoma
# [66] = system: UO-31 renal
# [67] = system: XF 498 CNS
smiles,measurement,setting,value
O=c1c2ccccc2sc2nc(CCl)nn12,TGI,[1],34.1 µM
same,TGI,[2],8.42 µM
same,TGI,[3],93 µM
same,TGI,[4],21.6 µM
same,TGI,[5],> 91.6 µM
same,TGI,[6],22.3 µM
same,TGI,[7],> 100 µM
same,TGI,[8],30.2 µM
same,TGI,[9],21.3 µM
same,TGI,[10],48.6 µM
same,TGI,[11],22.2 µM
same,TGI,[12],21.2 µM
same,TGI,[13],29.1 µM
same,TGI,[14],31.4 µM
same,TGI,[15],16.3 µM
same,TGI,[16],18.7 µM
same,TGI,[17],44.3 µM
same,TGI,[18],> 100 µM
same,TGI,[19],14.8 µM
same,TGI,[20],38.1 µM
same,TGI,[21],66 µM
same,TGI,[22],49.5 µM
same,TGI,[23],28.9 µM
same,TGI,[24],> 100 µM
same,TGI,[25],38 µM
same,TGI,[26],> 100 µM
same,TGI,[27],62.5 µM
same,TGI,[28],60.3 µM
same,TGI,[29],> 62.8 µM
same,TGI,[30],49.4 µM
same,TGI,[31],36.3 µM
same,TGI,[32],23.4 µM
same,TGI,[33],29.6 µM
same,TGI,[34],17.3 µM
same,TGI,[35],> 100 µM
same,TGI,[36],> 100 µM
same,TGI,[37],28.5 µM
same,TGI,[38],16.5 µM
same,TGI,[39],67.8 µM
same,TGI,[40],> 100 µM
same,TGI,[41],> 100 µM
same,TGI,[42],> 100 µM
same,TGI,[43],> 100 µM
same,TGI,[44],> 100 µM
same,TGI,[45],10.7 µM
same,TGI,[46],> 100 µM
same,TGI,[47],24.5 µM
same,TGI,[48],60.6 µM
same,TGI,[49],> 82.9 µM
same,TGI,[50],> 80.4 µM
same,TGI,[51],> 100 µM
same,TGI,[52],28.3 µM
same,TGI,[53],> 100 µM
same,TGI,[54],37.5 µM
same,TGI,[55],29.4 µM
same,TGI,[56],> 100 µM
same,TGI,[57],55.2 µM
same,TGI,[58],> 100 µM
same,TGI,[59],37.7 µM
same,TGI,[60],45.6 µM
same,TGI,[61],19.9 µM
same,TGI,[62],25.4 µM
same,TGI,[63],> 100 µM
same,TGI,[64],32.9 µM
same,TGI,[65],17 µM
same,TGI,[66],22.8 µM
same,TGI,[67],1.82 µM
NCCSCC(N)C(=O)O (stereo not drawn),TGI,[2],> 497 µM
same,GI50,[3],> 497 µM
same,TGI,[3],> 497 µM
same,GI50,[4],> 497 µM
same,TGI,[4],> 497 µM
same,GI50,[7],> 497 µM
same,TGI,[7],> 497 µM
same,GI50,[8],> 497 µM
same,TGI,[8],> 497 µM
same,TGI,[9],> 497 µM
same,TGI,[10],> 497 µM
same,TGI,[11],> 497 µM
same,TGI,[13],> 497 µM
same,TGI,[14],> 497 µM
same,GI50,[15],> 497 µM
same,TGI,[15],> 497 µM
same,GI50,[16],> 497 µM
same,TGI,[16],> 497 µM
same,TGI,[17],> 497 µM
same,TGI,[18],> 497 µM
same,TGI,[19],> 497 µM
same,GI50,[21],> 497 µM
same,TGI,[21],> 497 µM
same,GI50,[22],> 497 µM
same,TGI,[22],> 497 µM
same,GI50,[24],> 497 µM
same,TGI,[24],> 497 µM
same,TGI,[25],> 497 µM
same,TGI,[26],> 497 µM
same,TGI,[27],> 497 µM
same,TGI,[28],> 497 µM
same,TGI,[29],> 497 µM
same,GI50,[30],> 497 µM
same,TGI,[30],> 497 µM
same,TGI,[35],> 497 µM
same,TGI,[36],> 497 µM
same,TGI,[37],> 497 µM
same,GI50,[38],> 497 µM
same,TGI,[38],> 497 µM
same,GI50,[39],> 497 µM
same,TGI,[39],> 497 µM
same,GI50,[41],> 497 µM
same,TGI,[41],> 497 µM
same,TGI,[42],> 497 µM
same,TGI,[43],> 497 µM
same,TGI,[44],> 497 µM
same,GI50,[46],> 497 µM
same,TGI,[46],> 497 µM
same,TGI,[47],> 497 µM
same,TGI,[48],> 497 µM
same,TGI,[49],> 497 µM
same,TGI,[50],> 497 µM
same,TGI,[51],> 497 µM
same,TGI,[52],> 497 µM
same,GI50,[53],> 497 µM
same,TGI,[53],> 497 µM
same,TGI,[54],> 497 µM
same,TGI,[55],> 497 µM
same,TGI,[56],> 497 µM
same,GI50,[57],470 µM
same,TGI,[57],> 497 µM
same,TGI,[58],> 497 µM
same,TGI,[59],> 497 µM
same,GI50,[60],> 497 µM
same,TGI,[60],> 497 µM
same,TGI,[62],> 497 µM
same,TGI,[63],> 497 µM
same,TGI,[64],> 497 µM
same,TGI,[65],> 497 µM
same,TGI,[67],> 497 µM
C=CCN1C(=O)C(=O)N(CC=C)C(=O)C1=O,TGI,[1],> 100 µM
same,TGI,[2],> 100 µM
same,TGI,[3],> 100 µM
same,TGI,[6],> 100 µM
same,TGI,[7],> 100 µM
same,TGI,[8],> 100 µM
same,TGI,[9],> 100 µM
same,TGI,[10],> 100 µM
same,TGI,[11],> 100 µM
same,TGI,[13],> 100 µM
same,TGI,[14],> 100 µM
same,TGI,[15],> 100 µM
same,TGI,[16],> 100 µM
same,TGI,[17],> 100 µM
same,TGI,[18],> 100 µM
same,TGI,[19],> 100 µM
same,TGI,[21],> 100 µM
same,TGI,[22],> 100 µM
same,TGI,[23],> 100 µM
same,TGI,[24],> 100 µM
same,TGI,[25],> 100 µM
same,TGI,[26],> 100 µM
same,TGI,[27],> 100 µM
same,TGI,[28],> 100 µM
same,TGI,[29],> 100 µM
same,TGI,[30],> 100 µM
same,TGI,[35],> 100 µM
same,TGI,[36],> 100 µM
same,TGI,[37],> 100 µM
same,TGI,[38],> 100 µM
same,TGI,[39],> 100 µM
same,TGI,[41],> 100 µM
same,TGI,[42],> 100 µM
same,TGI,[43],> 100 µM
same,TGI,[44],> 100 µM
same,TGI,[46],> 100 µM
same,TGI,[47],> 100 µM
same,TGI,[48],> 100 µM
same,TGI,[49],> 100 µM
same,TGI,[50],> 100 µM
same,TGI,[53],> 100 µM
same,TGI,[54],> 100 µM
same,TGI,[55],> 100 µM
same,TGI,[56],> 100 µM
same,TGI,[57],> 100 µM
same,TGI,[58],> 100 µM
same,TGI,[59],> 100 µM
same,TGI,[60],> 100 µM
same,TGI,[62],> 100 µM
same,TGI,[63],> 100 µM
same,TGI,[64],> 100 µM
same,TGI,[65],> 100 µM
same,TGI,[66],> 100 µM
same,TGI,[67],> 100 µM
C[N+](C)(C)CC1CCc2ccccc2C1=O (stereo not drawn),TGI,[1],19.2 µM
same,TGI,[2],50.4 µM
same,TGI,[3],52.3 µM
same,TGI,[4],14.4 µM
same,TGI,[5],29.3 µM
same,TGI,[6],9.31 µM
same,TGI,[7],> 37.9 µM
same,TGI,[8],19.3 µM
same,TGI,[9],17 µM
same,TGI,[10],31 µM
same,TGI,[11],15.1 µM
same,TGI,[12],32.6 µM
same,TGI,[13],18.2 µM
same,TGI,[14],28.8 µM
same,TGI,[15],18.9 µM
same,TGI,[16],6.61 µM
same,TGI,[17],27.1 µM
same,TGI,[18],49.2 µM
same,TGI,[19],15.9 µM
same,TGI,[20],35.4 µM
same,TGI,[21],15.2 µM
same,TGI,[22],28.7 µM
same,TGI,[23],21.9 µM
same,TGI,[24],24.8 µM
same,TGI,[25],38.2 µM
same,TGI,[26],41.5 µM
same,TGI,[27],8.54 µM
same,TGI,[28],17.9 µM
same,TGI,[29],30.8 µM
same,TGI,[30],3.68 µM
same,TGI,[31],5.62 µM
same,TGI,[32],15.8 µM
same,TGI,[33],11 µM
same,TGI,[34],12.4 µM
same,TGI,[35],7.63 µM
same,TGI,[36],43.3 µM
same,TGI,[37],29.2 µM
same,TGI,[38],36.7 µM
same,TGI,[39],0.318 µM
same,TGI,[40],42.1 µM
same,TGI,[41],11.8 µM
same,TGI,[42],9.67 µM
same,TGI,[43],29.7 µM
same,TGI,[44],33.5 µM
same,TGI,[45],29.1 µM
same,TGI,[46],18.4 µM
same,TGI,[47],29.6 µM
same,TGI,[48],47.4 µM
same,TGI,[49],49.2 µM
same,TGI,[50],29.9 µM
same,TGI,[51],31.2 µM
same,TGI,[52],16.9 µM
same,TGI,[53],29.7 µM
same,TGI,[54],32.8 µM
same,TGI,[55],16.3 µM
same,TGI,[56],28.9 µM
same,TGI,[57],30.7 µM
same,TGI,[58],49.4 µM
same,TGI,[59],9.23 µM
same,TGI,[60],3.34 µM
same,TGI,[61],26.2 µM
same,TGI,[62],30.5 µM
same,TGI,[63],10.2 µM
same,TGI,[64],27.1 µM
same,TGI,[65],12 µM
same,TGI,[66],32.7 µM
same,TGI,[67],5.56 µM
